Source: patent US20250011344A1 (priority 2021, published 2025)
“And” between values parts separate entries of the source, which are not always exact repeats. Equal values may be shown once. Where a name gives a salt, the structure may show the parent alone.

Legend:
[1] = PO 2 mg/Kg, FIG. 15, time points other than the one quantified
[2] = PK of psilocin after a single intravenous administration in rats; conditions: IV 1 mg/kg nominal dose; for half-life: T½
[3] = psilocin in plasma, individual animal
[4] = psilocin in plasma, individual animal, 1 mg/kg

Row | SMILES | Plasma concentrations of metabolite psilocin at other time points [1] | AUC(0-inf) ([2]; male, Sprague-Dawley, rat, plasma, iv, 1 mg/kg, AUCINF_obs, Mean of animals) [ng·h/mL] | AUC(0-t) ([2]; male, Sprague-Dawley, rat, plasma, iv, 1 mg/kg, AUClast, Mean of animals) [ng·h/mL] | Cmax ([2]; male, Sprague-Dawley, rat, plasma, iv, 1 mg/kg, Cmax, Mean of animals) [ng/mL] | half-life ([2]; male, Sprague-Dawley, rat, plasma, iv, 1 mg/kg, Mean of animals) [min] | half-life ([2]; male, Sprague-Dawley, rat, plasma, iv, 1 mg/kg, individual animal) [min] | Tlast ([2]; psilocin in plasma, Mean of animals) [h] | Tlast [2, 3] [h] | Tmax [2, 3] [min] | AUCINF_obs [2, 4] | AUClast [2, 4] | Cmax [2, 4] | T½ [2, 4]
1 | CN(C)CCc1c[nH]c2cccc(OP(=O)(OC(C)(C)C)OC(C)(C)C)c12 [Di-tert-butyl [3-[2-(dimethylamino)ethyl]-1H-indol-4-yl] phosphate HCl salt] | below limit of quantification (BLQ) |  |  |  |  |  |  |  |  |  |  |  | 
2 | CN(C)CCc1c[nH]c2cccc(O)c12 [Psilocin, psilocin] |  | 1580 | 1920 | 1300 | 28.7 | 24.8 | 24.00 | 24.00 | 15 | 982 ng·h/mL and 3390 ng·h/mL and 368 ng·h/mL | 1340 ng·h/mL and 3780 ng·h/mL and 646 ng·h/mL | 1110 ng/mL and 2450 ng/mL and 340 ng/mL | 21.2 min and 40.1 min
